Measurements as given in patent US20250382305A1 (PTC THERAPEUTICS, INC., priority 2022, published 2025).

Assays:
[1] = test system: Total ATXN3 (tATXN3) protein; test: Endogenous Total ATXN3 (tATXN3) Protein Assay (MSD immunoassay of cell lysates); format: cell-based; settings: average IC50, total ATXN3 protein in cell lysate after 48 h with compound (Table 1)
How it was run: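 By electrochemiluminescent MSD sandwich immunoassay (mouse monoclonal capture, rabbit monoclonal and SULFO-TAG anti-rabbit detection), endogenous ATXN3 was quantified in lysates of cells treated 48 h at 37° C at 10,000 cells/well. Treatment used a 7-point 3.16-fold duplicate dilution series, with average IC50 grouped into star categories.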

[2] = test system: ATXN3 pre-mRNA; test: RT-qPCR Assay to Quantify Exon 4 Skipping in ATXN3 pre-mRNA in Cells; format: cell-based; settings: percent exon 4 skipping in ATXN3 pre-mRNA, RT-qPCR of cell lysates; average IC50
How it was run: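 IC50 derives from a dose-response fit of percent exon 4 skipping, quantified by RT-qPCR on crude lysates. Compounds tested as 7-point 3.16-fold dilutions in duplicate; cells (10,000/well) were exposed for 24 h at 37 °C before lysis.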

Row | SMILES | IC50 [1] [µM] | IC50 [2] [µM]
1 | N[C@H]1CCCCCC[C@@H]1c1sc2c(NCc3cccs3)cc(Cl)nc2c1I [Compound 122, 2-((1S,2S)-2-aminocyclooctyl)-5-chloro-3-iodo-N-(thiophen-2-ylmethyl)thieno[3,2-b]pyridin-7-amine] | > 1 | > 1
2 | N[C@@H]1CCCCCC[C@H]1c1sc2c(NCc3cccs3)cc(Cl)nc2c1I [Compound 123, 2-((1R,2R)-2-aminocyclooctyl)-5-chloro-3-iodo-N-(thiophen-2-ylmethyl)thieno[3,2-b]pyridin-7-amine] | > 1 | > 1
3 | Cc1c([C@@]2(F)CCC[C@@H]2N)sc2c(NCc3ccco3)nc(Cl)nc12 [Compound 128, 6-((1R,2S)-2-amino-1-fluorocyclopentyl)-2-chloro-N-(furan-2-ylmethyl)-7-methylthieno[3,2-d]pyrimidin-4-amine] | > 1 | > 1
4 | N[C@H]1CCCC[C@@H]1c1sc2c(NCc3cccs3)cc(Cl)nc2c1-c1ccccc1 [Compound 129] | 0.3 to 1 | 0.03 to 0.3
5 | N[C@H]1CCCC[C@@H]1c1sc2c(NCc3cccs3)cc(Cl)nc2c1C1CC1 [Compound 130, 2-((1S,2S)-2-aminocyclohexyl)-5-chloro-3-cyclopropyl-N-(thiophen-2-ylmethyl)thieno[3,2-b]pyridin-7-amine] | 0.03 to 0.3 | 0.03 to 0.3
6 | N[C@H]1CCC[C@@H]1c1sc2c(NCc3cccs3)cc(Cl)nc2c1-c1ccccc1 [Compound 131, 2-((1S,2S)-2-aminocyclopentyl)-5-chloro-3-phenyl-N-(thiophen-2-ylmethyl)thieno[3,2-b]pyridin-7-amine] | > 1 | > 1
7 | N[C@@H]1CCCO[C@H]1c1sc2c(NCc3ccccc3)cc(Cl)nc2c1I [Compound 132, 2-((2R,3R)-3-aminotetrahydro-2H-pyran-2-yl)-N-benzyl-5-chloro-3-iodothieno[3,2-b]pyridin-7-amine] | 0.3 to 1 | > 1
8 | Cc1c([C@H]2OCCC[C@@H]2N)sc2c(NCc3ccco3)cc(Cl)nc12 [Compound 133, 2-((2S,3S)-3-aminotetrahydro-2H-pyran-2-yl)-5-chloro-N-(furan-2-ylmethyl)-3-methylthieno[3,2-b]pyridin-7-amine] | 0.03 to 0.3 | ≤ 0.03
9 | Cc1c([C@@H]2OCCC[C@H]2N)sc2c(NCc3ccco3)cc(Cl)nc12 [Compound 134, ((2R,3R)-3-aminotetrahydro-2H-pyran-2-yl)-5-chloro-N-(furan-2-ylmethyl)-3-methylthieno[3,2-b]pyridin-7-amine] | > 1 | > 1
10 | N[C@@H]1CCC[C@H]1c1sc2c(NCc3cccs3)cc(Cl)nc2c1-c1ccccc1 [Compound 135, 2-((1R,2R)-2-aminocyclopentyl)-5-chloro-3-phenyl-N-(thiophen-2-ylmethyl)thieno[3,2-b]pyridin-7-amine] | > 1 | > 1
11 | N[C@H]1CCCO[C@@H]1c1sc2c(NCc3ccccc3)cc(Cl)nc2c1I [Compound 136, 2-((2S,3S)-3-aminotetrahydro-2H-pyran-2-yl)-N-benzyl-5-chloro-3-iodothieno[3,2-b]pyridin-7-amine] | ≤ 0.03 | ≤ 0.03
12 | N[C@@H]1CCCC[C@H]1c1sc2c(NCc3cccs3)cc(Cl)nc2c1C1CC1 [Compound 137, 2-((1R,2R)-2-aminocyclohexyl)-5-chloro-3-cyclopropyl-N-(thiophen-2-ylmethyl)thieno[3,2-b]pyridin-7-amine] | > 1 | > 1
13 | N[C@@H]1CCCC[C@H]1c1sc2c(NCc3cccs3)cc(Cl)nc2c1-c1ccccc1 [Compound 138] | 0.03 to 0.3 | 0.3 to 1
14 | N[C@H]1COCC[C@@H]1c1sc2c(NCc3cccs3)cc(Cl)nc2c1Br [Compound 139, 2-((3R,4S)-3-aminotetrahydro-2H-pyran-4-yl)-3-bromo-5-chloro-N-(thiophen-2-ylmethyl)thieno[3,2-b]pyridin-7-amine] | 0.03 to 0.3 | ≤ 0.03

Continued, values first:

Row | IC50 [1] [µM] | IC50 [2] [µM] | SMILES
15 | 0.3 to 1 | 0.3 to 1 | N[C@@H]1COCC[C@H]1c1sc2c(NCc3cccs3)cc(Cl)nc2c1Br [Compound 140, 2-((3S,4R)-3-aminotetrahydro-2H-pyran-4-yl)-3-bromo-5-chloro-N-(thiophen-2-ylmethyl)thieno[3,2-b]pyridin-7-amine]
16 | > 1 | > 1 | N[C@H]1CCCCC[C@@H]1c1sc2c(NCc3cccs3)cc(Cl)nc2c1-c1ccccc1 [Compound 141, 2-((1S,2S)-2-aminocycloheptyl)-5-chloro-3-phenyl-N-(thiophen-2-ylmethyl)thieno[3,2-b]pyridin-7-amine]
17 | > 1 | > 1 | N[C@@H]1CCCCC[C@H]1c1sc2c(NCc3cccs3)cc(Cl)nc2c1-c1ccccc1 [Compound 142, 2-((1R,2R)-2-aminocycloheptyl)-5-chloro-3-phenyl-N-(thiophen-2-ylmethyl)thieno[3,2-b]pyridin-7-amine]
18 | ≤ 0.03 | ≤ 0.03 | N[C@H]1CCCO[C@@H]1c1sc2c(NCc3ccco3)nc(Cl)nc2c1Br [Compound 143, 6-((2S,3S)-3-aminotetrahydro-2H-pyran-2-yl)-7-bromo-2-chloro-N-(furan-2-ylmethyl)thieno[3,2-d]pyrimidin-4-amine]
19 | > 1 | 0.03 to 0.3 | Cc1c([C@@H]2CCC[C@H]2N)sc2c(NCc3ccco3)cc(Cl)nc12 [Compound 145, 2-((1R,2R)-2-aminocyclopentyl)-5-chloro-N-(furan-2-ylmethyl)-3-methylthieno[3,2-b]pyridin-7-amine]
20 | > 1 | > 1 | N[C@@H]1CCC[C@H]1c1sc2c(NCc3cccs3)cc(Cl)nc2c1I [Compound 154, 2-((1R,2R)-2-aminocyclopentyl)-5-chloro-3-iodo-N-(thiophen-2-ylmethyl)thieno[3,2-b]pyridin-7-amine]
21 | > 1 | 0.3 to 1 | N[C@@H]1CCC[C@H]1c1sc2c(NCc3ccco3)cc(Cl)nc2c1Br [Compound 155, 2-((1R,2R)-2-aminocyclopentyl)-3-bromo-5-chloro-N-(furan-2-ylmethyl)thieno[3,2-b]pyridin-7-amine]
22 | > 1 | > 1 | N[C@@H]1CCCO[C@H]1c1sc2c(NCc3ccccc3)cc(Cl)nc2c1Cl [Compound 156, 2-((2R,3R)-3-aminotetrahydro-2H-pyran-2-yl)-N-benzyl-3,5-dichlorothieno[3,2-b]pyridin-7-amine]
23 | > 1 | > 1 | N[C@@H]1CCCCC[C@H]1c1sc2c(NCc3cccs3)cc(Cl)nc2c1I [Compound 157, 2-((1R,2R)-2-aminocycloheptyl)-5-chloro-3-iodo-N-(thiophen-2-ylmethyl)thieno[3,2-b]pyridin-7-amine]
24 | > 1 | > 1 | CCc1c([C@@H]2CCCCCC[C@H]2N)sc2c(NCc3cccs3)cc(Cl)nc12 [Compound 158, 2-((1R,2R)-2-aminocyclooctyl)-5-chloro-3-ethyl-N-(thiophen-2-ylmethyl)thieno[3,2-b]pyridin-7-amine]
25 | > 1 | > 1 | N[C@H]1CCC[C@@H]1c1sc2c(NCc3ccccc3)cc(Cl)nc2c1Cl [Compound 159, 2-((1S,2S)-2-aminocyclopentyl)-N-benzyl-3,5-dichlorothieno[3,2-b]pyridin-7-amine]
26 | > 1 | > 1 | Cc1c([C@@H]2CCC[C@H]2N)sc2c(NCc3ccccc3)cc(Cl)nc12 [Compound 160, 2-((1R,2R)-2-aminocyclopentyl)-N-benzyl-5-chloro-3-methylthieno[3,2-b]pyridin-7-amine]
27 | > 1 | > 1 | N[C@@H]1CCC[C@H]1c1sc2c(NCc3ccccc3)cc(Cl)nc2c1Br [Compound 161, 2-((1R,2R)-2-aminocyclopentyl)-N-benzyl-3-bromo-5-chlorothieno[3,2-b]pyridin-7-amine]
28 | ≤ 0.03 | ≤ 0.03 | N[C@H]1CCC[C@@H]1c1sc2c(NCc3cccs3)cc(Cl)nc2c1I [Compound 162, 2-((1S,2S)-2-aminocyclopentyl)-5-chloro-3-iodo-N-(thiophen-2-ylmethyl)thieno[3,2-b]pyridin-7-amine]
29 | 0.03 to 0.3 | ≤ 0.03 | N[C@H]1CCCCC[C@@H]1c1sc2c(NCc3cccs3)cc(Cl)nc2c1I [Compound 163, 2-((1S,2S)-2-aminocycloheptyl)-5-chloro-3-iodo-N-(thiophen-2-ylmethyl)thieno[3,2-b]pyridin-7-amine]
30 | > 1 | 0.3 to 1 | CCc1c([C@H]2CCCCCC[C@@H]2N)sc2c(NCc3cccs3)cc(Cl)nc12 [Compound 164, 2-((1S,2S)-2-aminocyclooctyl)-5-chloro-3-ethyl-N-(thiophen-2-ylmethyl)thieno[3,2-b]pyridin-7-amine]
31 | ≤ 0.03 | ≤ 0.03 | N[C@H]1CCC[C@@H]1c1sc2c(NCc3ccco3)cc(Cl)nc2c1Br [Compound 165, 2-((1S,2S)-2-aminocyclopentyl)-3-bromo-5-chloro-N-(furan-2-ylmethyl)thieno[3,2-b]pyridin-7-amine]
32 | 0.03 to 0.3 | 0.03 to 0.3 | N[C@H]1CCC[C@@H]1c1sc2c(NCc3ccccc3)cc(Cl)nc2c1Br [Compound 166, 2-((1S,2S)-2-aminocyclopentyl)-N-benzyl-3-bromo-5-chlorothieno[3,2-b]pyridin-7-amine]
33 | 0.3 to 1 | 0.03 to 0.3 | N[C@@H]1CCC[C@H]1c1sc2c(NCc3ccccc3)cc(Cl)nc2c1Cl [Compound 167, 2-((1R,2R)-2-aminocyclopentyl)-N-benzyl-3,5-dichlorothieno[3,2-b]pyridin-7-amine]
